For this experiment, the system named is E. coli WT ribosome GFP fluorescence, mixed culture, 24 h. The experiment in a line: wild-type E. coli growth inhibition versus h38 humanized strain – h38 mutant RFP, wild-type GFP, cherry-pick, dose response (AID 977622).
The mark [1] stands for this setting: E. coli mixed culture, 24 h, measured here: total growth OD600.

Each structure is given as a SMILES string. Records with an inconclusive call do not appear. Activity calls are given as the source filed them.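 Rule for the calls: active = Green signal of the normal strain falls at least twice as much as red signal of the resistant mutant, with overall culture growth loss under a set limit; inconclusive = no clear call, values can overlap the other calls; inactive = the rest.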

On to `O=[N+]([O-])c1ccccc1CN1CCN(S(=O)(=O)c2ccccc2)CC1`, for which the AC50 is > 100 µM (inactive). Take `Clc1ccc(-c2cn(-c3ccccc3)c3[n+]2CCS3)cc1`: the AC50 is > 100 µM (inactive). On to `Cc1cccc(S(=O)(=O)Nc2ccc(-c3cn4ccccc4n3)cc2)c1`, for which the AC50 is > 100 µM (inactive). Under setting [1], this compound displayed a half-maximal activity concentration (AC50) of 26.7 µM. Regarding `CCN(CC)c1nc(Oc2ccc(C(=O)OC)cc2)nc(N2CCOCC2)n1`, the AC50 under setting [1] is greater than 100 µM. For `Cc1ccsc1C(=O)OCC(=O)N1CCc2ccccc2C1`, the AC50 was > 100 µM (inactive). Under setting [1], the AC50 was greater than 100 µM. `COc1cccc(S(=O)(=O)N2CCCCN3[C@H](C2)[C@H](c2ccc(C#CC(C)C)cc2)[C@@H]3CO)c1`: the AC50 was > 100 µM (inactive). In the case of `O=C(Nc1cccc(Cl)c1)N1C[C@@H]2[C@H](c3ccccc31)[C@@H](CO)N2CC1CCCCC1`, the AC50 was > 100 µM (inactive). The compound further registered a half-maximal activity concentration (AC50) under setting [1] of 50 µM. In the case of `CCOC(=O)C1CCCN(C(=O)c2csc(-c3ccc4c(c3)CCO4)n2)C1` (stereo not drawn), the AC50 is > 100 µM (inactive). Under setting [1], `COc1cccc(NC(=O)N(C)C[C@H]2Oc3ncc(C#Cc4cccnc4)cc3C(=O)N([C@H](C)CO)C[C@H]2C)c1` had an AC50 greater than 100 µM. `Cc1ccc2oc(C(=O)N(CCO)Cc3ccccc3)c(C)c2c1`: the AC50 is > 100 µM (inactive). In addition, under setting [1], the AC50 worked out at 37.1 µM. On to `COc1ccc(OC2C(=O)N(Cc3ccc4c(c3)OCO4)C2c2sccc2C)cc1` (stereo not drawn), for which the AC50 was > 100 µM (inactive). Under setting [1], `CC(=O)Nc1cccc(OCCCOc2cccc([N+](=O)[O-])c2)c1` returned an AC50 greater than 100 µM.

As to `Cc1cc(NC(=O)c2cccc(Oc3ccccc3)c2)n[nH]1`, the AC50 was > 100 µM (inactive). Under setting [1], this compound showed an AC50 of 40.6 µM. Consider `CNC(=O)c1ccsc1NC(=O)c1ccc(S(=O)(=O)N2CCc3ccccc32)cc1`, for which, under setting [1], the AC50 is greater than 100 µM. Same read-out and setting: the figure for `Cc1ccc(S(=O)(=O)NC(C)C(=O)NCc2ccc(Cl)cc2)cc1` (stereo not drawn) is greater than 100 µM; for `O=C(Nc1ccn(Cc2ccc(Cl)cc2)n1)c1ccccc1` it is greater than 100 µM. As for `Cc1noc(NS(=O)(=O)c2ccc(NC(=O)c3cc(-c4ccccc4Cl)nc4ccccc34)cc2)c1C`, the AC50 was > 100 µM (inactive). As to `c1ccc(-c2nc3c4ccccc4ccn3c2CN2CCOCC2)cc1`, the AC50 is > 100 µM (inactive). As to `COc1cccc(C(=O)NC2CC3CCCC(C2)N3S(=O)(=O)c2ccccc2)c1` (stereo not drawn), the AC50 was > 100 µM (inactive). The same compound showed an AC50 under setting [1] of 41.4 µM.

With `CCOc1ccc(-c2nc(-c3cccs3)c(CC(=O)O)s2)cc1OC`, the AC50 under setting [1] is greater than 100 µM. As for `O=C(O)c1ccc(-c2nc(-c3ccccc3)cs2)cc1`, the AC50 was > 100 µM (inactive).

As for `Cc1cc(C)c(OCCNC(=O)c2ccccc2Sc2ccccc2C#N)c(C)c1`, the AC50 is > 100 µM (inactive). `COCCN(C(=O)c1ccccc1F)c1nnc(-c2ccc(OC)cc2)s1`: the AC50 was > 100 µM (inactive). Moreover, the AC50 under setting [1] is greater than 100 µM. Consider `NS(=O)(=O)c1cccc(NC(=O)c2cccc(-c3ccc(O)cc3)c2)c1`, for which the AC50 is > 100 µM (inactive). The AC50 under setting [1] came out at 50.2 µM. With `Cc1ccc(NC(=O)c2ccc([N+](=O)[O-])o2)c(C)c1`, the AC50 was > 100 µM (inactive). On the same count and under the same terms, the figure for `CCc1nnc(NS(=O)(=O)c2ccc(NC(=O)c3cccc(Cl)c3)cc2)s1` is > 100 µM (inactive).

`Cc1cc(C(N)=O)nn1-c1c(Cl)cc(Cl)cc1Cl` gave an AC50 under setting [1] greater than 100 µM. Regarding `Nc1nn(-c2ccccc2)c2ccc([N+](=O)[O-])cc12`, the AC50 is > 100 µM (inactive). Under setting [1], `Cc1cccc(CN2C(=O)c3ccccc3Sc3ccc(C(=O)O)cc32)c1` gave an AC50 greater than 100 µM. Same read-out and setting: the figure for `COc1ccc(CC(=O)NCc2csc(-c3cccs3)n2)cc1OC` is greater than 100 µM. For `CCOc1ccc(N(CC(=O)NC(C(C)C)C(C)C)S(=O)(=O)c2ccc(OC)c(OC)c2)cc1`, the AC50 was > 100 µM (inactive). For the same compound, the half-maximal activity concentration (AC50) under setting [1] came out at 50.9 µM. On to `Nc1[nH]c(C(=O)c2ccccc2)c(-c2ccc(Cl)cc2)c1C(=O)NCCc1c[nH]c2ccccc12`, for which the AC50 under setting [1] was greater than 100 µM. Compound `O=C(NCCCn1ccnc1)c1sc2cc([N+](=O)[O-])ccc2c1Cl` had a half-maximal activity concentration (AC50) under setting [1] greater than 100 µM. In the case of `S=C1SCN(Cc2cccnc2)CN1Cc1ccccc1`, the AC50 was > 100 µM (inactive).

Regarding `Cc1ccc(C)c(N(CC(=O)NC2CCCC2)C(=O)c2oc(C(C)(C)C)cc2C)c1`, the AC50 under setting [1] was greater than 100 µM. `COc1ccc2oc(C(=O)NCc3ccco3)c(C)c2c1`: the AC50 is > 100 µM (inactive).

Consider `CCN(CC)CCN(C(=O)c1ccc2c(c1)CCCC2)c1nc2ccc(F)cc2s1`, for which the AC50 is > 100 µM (inactive). This compound also came in with an AC50 under setting [1] of 46.3 µM. In the case of `C[C@@H]1CN([C@@H](C)CO)C(=O)c2cc(NC(=O)C3CC3)ccc2O[C@H]1CN(C)C(=O)Nc1ccc(C(F)(F)F)cc1`, the AC50 was > 100 µM (inactive). `COc1ccc(OCC(=O)N2c3ccccc3CC2C)c([N+](=O)[O-])c1` (stereo not drawn): the AC50 is > 100 µM (inactive). The compound also had an AC50 under setting [1] greater than 100 µM.

In the case of `O=C(NCCc1ccccc1)c1cccc(NC(=O)c2ccccc2)c1`, the AC50 was > 100 µM (inactive). Consider `Clc1ccc(-c2nc3ccc(Br)cn3c2Cc2ccsc2)cc1`, for which the AC50 is > 100 µM (inactive). The compound further gave a half-maximal activity concentration (AC50) under setting [1] of 35 µM. In turn, `COc1cc2c(c(OC)c1OC)C(c1ccc3c(c1)OCO3)CC(=O)O2` (stereo not drawn) gave an AC50 under setting [1] greater than 100 µM. Regarding `CC(OC(=O)CCc1nc2ccccc2c(=O)[nH]1)C(=O)c1ccc(Br)cc1` (stereo not drawn), the AC50 is > 100 µM (inactive). In turn, `O=C(Nc1ccc(C(=O)Nc2ccccc2Cl)cc1)c1cccnc1` yielded an AC50 under setting [1] greater than 100 µM. As for `COc1cc(C(N)=O)cc(Br)c1OCc1ccccc1`, the AC50 was > 100 µM (inactive).

On to `Cc1ccc(S(=O)(=O)Nc2ccccc2CNc2cccc(C)n2)cc1`, for which, under setting [1], the AC50 is greater than 100 µM. With `CCc1nn2cc(C(=O)c3cc(Cl)ccc3O)cnc2c1-c1ccc(F)cc1`, the AC50 is > 100 µM (inactive). The same compound had a concentration at half-maximal activity (AC50) under setting [1] greater than 100 µM. `CN(Cc1ccc([N+](=O)[O-])cc1)c1ccccc1` came in with an AC50 under setting [1] greater than 100 µM. Same read-out and setting: the value for `Cc1cc2nc(SCC(=O)O)nc(C)c2cc1C` was greater than 100 µM.

For the compound `COc1cc2nc(Nc3ccc(F)cc3)nc(N)c2cc1OC`, the AC50 is > 100 µM (inactive). Regarding `COc1ccc(CN2CCC3CC2c2cc(Cl)ccc23)cc1` (stereo not drawn), the concentration at half-maximal activity (AC50) under setting [1] is greater than 100 µM. Consider `O=C(NCc1ccccc1)c1ccc(-c2ccccc2F)o1`, for which the AC50 is > 100 µM (inactive). The compound also gave an AC50 under setting [1] of 28.8 µM. In the same order, the values of `O=C(O)c1cccnc1SCc1ccccc1Cl` are > 100 µM (inactive) and 42.8 µM. For `O=C(C[C@@H]1CC[C@H]2[C@@H](COC[C@H](O)CN2C(=O)Nc2cc(Cl)cc(Cl)c2)O1)N1CCOCC1`, the AC50 was > 100 µM (inactive).

`O=C(Nc1cccc(Cl)c1)N1C[C@@H]2[C@H](c3ccccc31)[C@H](CO)N2Cc1ccncc1`: under setting [1], the AC50 is greater than 100 µM.

Turning to `Cc1ccc(-c2c[n+](CC(=O)OCc3ccccc3)c3n2CCC3)cc1`, the AC50 is > 100 µM (inactive).

`O=C(NCCc1ccc(Cl)cc1)c1ccc2nc[nH]c2c1`: the AC50 was > 100 µM (inactive). As to `COc1ccc(Cl)cc1C(=O)OCC(=O)c1ccc[nH]1`, the AC50 is > 100 µM (inactive).

In general, AC50 refers to the concentration at which the activity in the assay is half-maximal.
